# From PubChem BioAssay (NCI)
#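 Here, GI50 denotes the concentration required for 50% inhibition of growth. TGI marks complete inhibition of growth.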
# Assays:
# Assay in all cases: NCI anticancer screen, dose series, 384-well format
# M14 melanoma = system: M14 melanoma
# KM12 colon = system: KM12 colon
# PC-3 prostate = system: PC-3 prostate
# IGROV1 ovarian = system: IGROV1 ovarian
# HL-60(TB) leukemia = system: HL-60(TB) leukemia
# HOP-62 NSCLC = system: HOP-62 NSCLC
# MDA-MB-435 melanoma = system: MDA-MB-435 melanoma
# CCRF-CEM leukemia = system: CCRF-CEM leukemia
# LOX IMVI melanoma = system: LOX IMVI melanoma
# K-562 leukemia = system: K-562 leukemia
# NCI-H23 lung = system: NCI-H23 lung
# MDA-MB-468 breast = system: MDA-MB-468 breast
# OVCAR-8 ovarian = system: OVCAR-8 ovarian
# T-47D breast = system: T-47D breast
# OVCAR-5 ovarian = system: OVCAR-5 ovarian
# CAKI-1 renal = system: CAKI-1 renal
# UO-31 renal = system: UO-31 renal
# SK-MEL-5 melanoma = system: SK-MEL-5 melanoma
# NCI-H322M lung = system: NCI-H322M lung
# SK-MEL-28 melanoma = system: SK-MEL-28 melanoma
# SW-620 colon = system: SW-620 colon
# NCI-H460 NSCLC = system: NCI-H460 NSCLC
# SF-295 CNS = system: SF-295 CNS
# 786-0 renal = system: 786-0 renal
# HOP-92 NSCLC = system: HOP-92 NSCLC
# SK-MEL-2 melanoma = system: SK-MEL-2 melanoma
# MOLT-4 leukemia = system: MOLT-4 leukemia
# SF-268 CNS = system: SF-268 CNS
# HCT-116 colon = system: HCT-116 colon
# SNB-19 CNS = system: SNB-19 CNS
# HT29 colon = system: HT29 colon
# HCT-15 colon = system: HCT-15 colon
# TK-10 renal = system: TK-10 renal
# U251 glioblastoma = system: U251 glioblastoma
# SN12C renal = system: SN12C renal
# A549 NSCLC = system: A549 NSCLC
# SF-539 CNS = system: SF-539 CNS
# UACC-62 melanoma = system: UACC-62 melanoma
# SK-OV-3 ovarian = system: SK-OV-3 ovarian
# NCI/ADR-RES ovarian = system: NCI/ADR-RES ovarian
# ACHN renal = system: ACHN renal
# COLO 205 colon = system: COLO 205 colon
# OVCAR-3 ovarian = system: OVCAR-3 ovarian
# A498 renal = system: A498 renal
# MCF7 breast = system: MCF7 breast
# NCI-H522 lung = system: NCI-H522 lung
# NCI-H226 lung = system: NCI-H226 lung
# MDA-MB-231 breast = system: MDA-MB-231 breast
# MALME-3M melanoma = system: MALME-3M melanoma
# RPMI-8226 leukemia = system: RPMI-8226 leukemia
# SR leukemia = system: SR leukemia
# OVCAR-4 ovarian = system: OVCAR-4 ovarian
# DU-145 prostate = system: DU-145 prostate
# UACC-257 melanoma = system: UACC-257 melanoma
# RXF 393 renal = system: RXF 393 renal
# BT-549 breast = system: BT-549 breast
# HCC-2998 colon = system: HCC-2998 colon
structure (smiles),measurement,setting,value
C[C@H](Nc1cc(Cl)nc2c1cnn2[C@@H]1O[C@H](COP(=O)(O)CP(=O)(O)O)[C@@H](O)[C@H]1O)c1ccccc1F,GI50,M14 melanoma,> 100 µM
same,TGI,M14 melanoma,> 100 µM
same,GI50,KM12 colon,> 100 µM
same,TGI,KM12 colon,> 100 µM
same,GI50,PC-3 prostate,> 100 µM
same,TGI,PC-3 prostate,> 100 µM
same,GI50,IGROV1 ovarian,> 100 µM
same,TGI,IGROV1 ovarian,> 100 µM
same,GI50,HL-60(TB) leukemia,> 100 µM
same,TGI,HL-60(TB) leukemia,> 100 µM
same,GI50,HOP-62 NSCLC,> 100 µM
same,TGI,HOP-62 NSCLC,> 100 µM
same,GI50,MDA-MB-435 melanoma,> 100 µM
same,TGI,MDA-MB-435 melanoma,> 100 µM
same,GI50,CCRF-CEM leukemia,42.4 µM
same,TGI,CCRF-CEM leukemia,> 100 µM
same,GI50,LOX IMVI melanoma,> 100 µM
same,TGI,LOX IMVI melanoma,> 100 µM
same,GI50,K-562 leukemia,> 100 µM
same,TGI,K-562 leukemia,> 100 µM
same,GI50,NCI-H23 lung,67.3 µM
same,TGI,NCI-H23 lung,> 100 µM
same,GI50,MDA-MB-468 breast,> 100 µM
same,TGI,MDA-MB-468 breast,> 100 µM
same,GI50,OVCAR-8 ovarian,> 100 µM
same,TGI,OVCAR-8 ovarian,> 100 µM
same,GI50,T-47D breast,80.7 µM
same,TGI,T-47D breast,> 100 µM
same,GI50,OVCAR-5 ovarian,> 100 µM
same,TGI,OVCAR-5 ovarian,> 100 µM
same,GI50,CAKI-1 renal,> 100 µM
same,TGI,CAKI-1 renal,> 100 µM
same,GI50,UO-31 renal,> 100 µM
same,TGI,UO-31 renal,> 100 µM
same,GI50,SK-MEL-5 melanoma,> 100 µM
same,TGI,SK-MEL-5 melanoma,> 100 µM
same,GI50,NCI-H322M lung,> 100 µM
same,TGI,NCI-H322M lung,> 100 µM
same,GI50,SK-MEL-28 melanoma,> 100 µM
same,TGI,SK-MEL-28 melanoma,> 100 µM
same,GI50,SW-620 colon,> 100 µM
same,TGI,SW-620 colon,> 100 µM
same,GI50,NCI-H460 NSCLC,> 100 µM
same,TGI,NCI-H460 NSCLC,> 100 µM
same,GI50,SF-295 CNS,> 100 µM
same,TGI,SF-295 CNS,> 100 µM
same,GI50,786-0 renal,> 100 µM
same,TGI,786-0 renal,> 100 µM
same,GI50,HOP-92 NSCLC,> 100 µM
same,TGI,HOP-92 NSCLC,> 100 µM
same,GI50,SK-MEL-2 melanoma,99.6 µM
same,TGI,SK-MEL-2 melanoma,> 100 µM
same,GI50,MOLT-4 leukemia,58.8 µM
same,TGI,MOLT-4 leukemia,> 100 µM
same,GI50,SF-268 CNS,> 100 µM
same,TGI,SF-268 CNS,> 100 µM
same,GI50,HCT-116 colon,> 100 µM
same,TGI,HCT-116 colon,> 100 µM
same,GI50,SNB-19 CNS,> 100 µM
same,TGI,SNB-19 CNS,> 100 µM
same,GI50,HT29 colon,> 100 µM
same,TGI,HT29 colon,> 100 µM
same,GI50,HCT-15 colon,> 100 µM
same,TGI,HCT-15 colon,> 100 µM
same,GI50,TK-10 renal,> 100 µM
same,TGI,TK-10 renal,> 100 µM
same,GI50,U251 glioblastoma,> 100 µM
same,TGI,U251 glioblastoma,> 100 µM
same,GI50,SN12C renal,70.8 µM
same,TGI,SN12C renal,> 100 µM
same,GI50,A549 NSCLC,80.5 µM
same,TGI,A549 NSCLC,> 100 µM
same,GI50,SF-539 CNS,49.9 µM
same,TGI,SF-539 CNS,> 100 µM
same,GI50,UACC-62 melanoma,> 100 µM
same,TGI,UACC-62 melanoma,> 100 µM
same,GI50,SK-OV-3 ovarian,73.8 µM
same,TGI,SK-OV-3 ovarian,> 100 µM
same,GI50,NCI/ADR-RES ovarian,> 100 µM
same,TGI,NCI/ADR-RES ovarian,> 100 µM
same,GI50,ACHN renal,> 100 µM
same,TGI,ACHN renal,> 100 µM
same,GI50,COLO 205 colon,> 100 µM
same,TGI,COLO 205 colon,> 100 µM
same,GI50,OVCAR-3 ovarian,> 100 µM
same,TGI,OVCAR-3 ovarian,> 100 µM
same,GI50,A498 renal,62.1 µM
same,TGI,A498 renal,> 100 µM
same,GI50,MCF7 breast,> 100 µM
same,TGI,MCF7 breast,> 100 µM
same,GI50,NCI-H522 lung,> 100 µM
same,TGI,NCI-H522 lung,> 100 µM
same,GI50,NCI-H226 lung,56.6 µM
same,TGI,NCI-H226 lung,> 100 µM
same,GI50,MDA-MB-231 breast,> 100 µM
same,TGI,MDA-MB-231 breast,> 100 µM
same,GI50,MALME-3M melanoma,> 100 µM
same,TGI,MALME-3M melanoma,> 100 µM
same,GI50,RPMI-8226 leukemia,8.19 µM
same,TGI,RPMI-8226 leukemia,40.9 µM
same,GI50,SR leukemia,47.9 µM
same,TGI,SR leukemia,> 100 µM
same,GI50,OVCAR-4 ovarian,50.6 µM
same,TGI,OVCAR-4 ovarian,> 100 µM
same,GI50,DU-145 prostate,> 100 µM
same,TGI,DU-145 prostate,> 100 µM
same,GI50,UACC-257 melanoma,> 100 µM
same,TGI,UACC-257 melanoma,> 100 µM
same,GI50,RXF 393 renal,28.5 µM
same,TGI,RXF 393 renal,> 100 µM
same,GI50,BT-549 breast,50.6 µM
same,TGI,BT-549 breast,> 100 µM
same,GI50,HCC-2998 colon,72.9 µM
same,TGI,HCC-2998 colon,> 100 µM
